Data from ChEMBL document CHEMBL1201862, “PubChem BioAssay data set” (2004).
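Five compound concentrations were applied to cells in 96-well plates for 48 hours; endpoints were derived by simple linear interpolation of the resulting dose-response curve. GI50 = concentration required for 50% inhibition of growth.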 Calls of active or inactive are those of the source. No stated cut-off is given here; in the data, active = GI50 up to about 1.1 µM and inactive = higher.

How the values were obtained:
Experiment in all cases: growth of human tumour cells (NCI), 48 h
[1] = system: SNB-75
[2] = system: KM12
[3] = system: UO-31
[4] = system: Malme-3M
[5] = system: A549
[6] = system: SNB-19
[7] = system: U-251
[8] = system: HOP-92
[9] = system: SF-268
[10] = system: HT-29
[11] = system: SK-MEL-5
[12] = system: IGROV-1
[13] = system: COLO 205
[14] = system: EKVX
[15] = system: NCI-H23
[16] = system: OVCAR-4
[17] = system: SK-MEL-2
[18] = system: SW-620
[19] = system: OVCAR-3
[20] = system: CCRF-CEM

Measured: GI50

O=c1ccc2ccc(S)cc2o1
inactive: [1] > 100 µM | [2] > 100 µM | [3] > 100 µM | [4] > 100 µM | [5] > 100 µM | [6] > 100 µM | [7] > 100 µM | [8] > 100 µM | [9] > 100 µM | [10] > 100 µM | [11] > 100 µM | [12] > 100 µM | [13] > 100 µM | [14] > 100 µM | [15] > 100 µM | [16] > 100 µM | [17] > 100 µM | [18] > 100 µM | [19] > 100 µM

COc1cc(Nc2c3ccccc3nc3ccccc23)ccc1NS(C)(=O)=O
inactive: [1] 7.46 µM | [2] 6.97 µM | [3] 4.41 µM | [20] 28.8 µM | [4] 7.66 µM | [5] 2.42 µM | [6] 5.73 µM | [7] 4.59 µM | [9] 4.39 µM | [10] 3.34 µM | [11] 6.53 µM | [12] 10.4 µM | [13] 3.48 µM | [14] 10 µM | [15] > 10 µM | [16] 3.61 µM | [17] 7.53 µM | [18] 2.61 µM | [19] 6.53 µM

COc1cc(Nc2nc3cc(C(F)(F)F)ccc3n3cccc23)cc(OC)c1OC
inactive: [1] > 100 µM | [3] > 100 µM | [20] 4.54 µM | [4] > 100 µM | [5] > 100 µM | [6] > 100 µM | [7] > 100 µM | [8] > 100 µM | [9] > 100 µM | [11] 26.7 µM | [12] > 100 µM | [13] > 100 µM | [14] > 100 µM | [15] > 100 µM | [17] > 100 µM | [18] > 100 µM | [19] > 100 µM

CC(O)C(O)C(N)CC=O (stereo not drawn)
inactive: [1] > 500 µM | [2] > 500 µM | [3] > 500 µM | [20] > 500 µM | [4] > 500 µM | [5] > 500 µM | [6] > 500 µM | [7] > 500 µM | [8] > 500 µM | [9] > 500 µM | [10] > 500 µM | [11] > 500 µM | [12] > 500 µM | [13] > 500 µM | [14] 491 µM | [15] > 500 µM | [16] > 500 µM | [17] > 500 µM | [18] > 158 µM | [19] > 500 µM

C=CCN1C(N)=C(C(N)=O)S/C1=C1/SC(=S)N(c2ccc(C)cc2)C1=O
inactive: [1] 12.6 µM | [2] > 100 µM | [3] > 100 µM | [20] > 100 µM | [4] 36.8 µM | [5] > 100 µM | [6] > 100 µM | [7] > 100 µM | [8] > 100 µM | [9] > 100 µM | [10] > 100 µM | [11] > 100 µM | [12] > 100 µM | [13] > 100 µM | [15] 65.3 µM | [17] > 100 µM | [18] > 100 µM | [19] > 100 µM

Cc1c2ccnc(C(F)(F)F)c2cc2c1[nH]c1ccccc12
inactive: [1] 64 µM | [2] 121 µM | [3] > 125 µM | [20] > 125 µM | [4] 98.2 µM | [5] > 125 µM | [6] 118 µM | [7] > 125 µM | [8] 8.63 µM | [9] 101 µM | [10] > 125 µM | [11] > 125 µM | [12] > 125 µM | [13] > 125 µM | [14] > 125 µM | [15] > 125 µM | [16] > 125 µM | [17] > 125 µM | [18] > 125 µM | [19] 114 µM

Cn1cc(C(=O)/C(Cl)=C(\Cl)C(=O)O)c2ccccc21
inactive: [1] > 100 µM | [2] > 100 µM | [3] > 100 µM | [20] > 100 µM | [4] > 100 µM | [5] > 100 µM | [7] > 100 µM | [10] > 100 µM | [11] > 100 µM | [12] > 100 µM | [14] > 100 µM | [15] > 100 µM | [16] > 100 µM | [17] > 100 µM | [18] > 100 µM | [19] > 100 µM

CC(C)(C)CI
inactive: [1] 26.4 µM | [2] 25.7 µM | [3] > 10 µM | [20] 21.4 µM | [4] 19.7 µM | [5] 25.6 µM | [6] 23 µM | [7] 26.2 µM | [8] 26.2 µM | [9] 33.7 µM | [10] > 10 µM | [11] 16.9 µM | [12] > 100 µM | [13] 22.2 µM | [14] 61.5 µM | [15] 55.6 µM | [17] 19.8 µM | [18] 18.1 µM | [19] 19.1 µM
